According to patent publication US9615581B2, “Stable needle-shaped crystals of natamycin” (DSM IP ASSETS B.V., priority 2004, dated 2017):

Experiments:
Format in all cases: physicochemical
[1] = Sedimentation (demixing) of natamycin dispersions in tapwater in glass tubes; settings: 1.5 g Delvocid equivalent in 1000 g tapwater, glass tube
Description: This example describes the test performed to analyze the sedimentation differences. 1.5 g Delvocid® was added to 998.5 gram tapwater and dispersed well by an electric top stirrer, type RW 20 DZM, from Janke & Kunkel equipped with a rushton stirrer. 1.5 gram of Delvocid® made according to Example 1 was mixed with tapwater to a final weight of 1000 gram by an electric top stirrer, type RW 20 DZM, from Janke & Kunkel equipped with a rushton stirrer. Both homogeneous mixtures were poured in glass tubes and observed in time on demixing.

[2] = Resuspendability of settled natamycin in a low viscous dispersion; settings: not touched for 26 days, glass tubes turned around once
Description: This example describes the test that was performed to analyze the resuspendability of settled natamycin in a low viscous dispersion. 1.5 gram Delvocid® was added to 998.5 gram tapwater and dispersed well by an electric top stirrer, type RW 20 DZM, from Janke & Kunkel equipped with a rushton stirrer. An amount equal to 1.5 gram Delvocid® made according to Example 1 was mixed with tapwater to a final weight of 1000 gram by an electric top stirrer, type RW 20 DZM, from Janke & Kunkel equipped with a rushton stirrer. Both homogeneous mixtures were poured in glass tubes and not touched for 26 days.

[3] = Stability of recrystallized natamycin dispersion (rest activity by HPLC); settings: for Found natamycin activity (%): dispersion made according to Example 1
Description: This example describes the method that was used to analyze the amount of active natamycin in a water-based mixture of several components.
The method used was a HPLC analysis based on the International Dairy Federation (Provisional IDF Standard 140, 1992) with a Lichrosorb RP 8 column.
Detection was at 303 nm UV with a range of 0.1-4 mg/L with an injection volume of 20 μl. Sample preparation was carried out by weighing 2 g of prepared formulation with an accuracy of 1 mg in a measuring flask. 4 ml demineralized water (demiwater) was added and the mixture was stirred for 15 minutes to get a homogeneous suspension.
Subsequently, 80 ml ethanol was added and the mixture was stirred for 10 minutes.
After ultrasonic treatment, the solution was filled up to 100 ml with demiwater and then diluted and/or filtered (0.2 μm) before injecting. The amount of active natamycin was calculated as ppm against a series of standards.
This example describes the stability of recrystallized natamycin, a natamycin dispersion is made according to Example 1 and followed in time on stability.

[4] = Crystal form stability of needle-shaped crystal suspension on storage; settings: 6 months of storage of suspension at 10° C.
Source text: As discussed above a sediment of the needle-shaped crystals of the present invention can be easily brought back in the suspended state without exclusive stirring or shaking. Another advantage of the needle-shaped crystals is that this crystal form is stable.

[5] = Dissolution of natamycin in water as a function of pH
Description: According to another aspect of the present invention, there is provided a process to produce the needle-shaped crystals of the invention. In the first step of this process, natamycin is dissolved in an aqueous solution. The solution comprises at least 80 wt %, preferably at least 90 wt % more preferably at least 95 wt % and still more preferably at least 98 wt % and preferably at least 99 wt % water as solvent. […] Preferably, natamycin is dissolved at a pH ranged between 10 and 14, more preferably at a pH ranged between 11 and 13. In general, natamycin of a purity of more than 90 wt % (including hydrate) preferably of a purity of 95% is used.

| SMILES | demixing observed ([1]; time 0 minutes) | demixing observed ([1]; time 40 minutes) | demixing observed ([1]; time 60 minutes) | demixing observed ([1]; time 110 minutes) | demixing observed ([1]; time 180 minutes) | demixing observed ([1]; time 4320 minutes) | resuspendability of pellet [2] | stability ([3]; for at least six months) | Found natamycin activity (%) ([3]; incubation time 0 months) | Found natamycin activity (%) ([3]; incubation time 1 month) | Found natamycin activity (%) ([3]; incubation time 2 months) | Found natamycin activity (%) ([3]; incubation time 4 months) | Found natamycin activity (%) ([3]; incubation time 6 months) | crystal form and mean length after storage [4] | dissolution in water ([5]; low pH (lower than 4.0) or high pH (above 10.0)) | dissolution in water ([5]; neutral pH) |
| --- | --- | --- | --- | --- | --- | --- | --- | --- | --- | --- | --- | --- | --- | --- | --- | --- |
| C[C@@H]1C/C=C/C=C/C=C/C=C/[C@H](O[C@@H]2O[C@H](C)[C@@H](O)[C@H](N)[C@@H]2O)C[C@@H]2O[C@](O)(C[C@@H](O)C[C@H]3O[C@@H]3/C=C/C(=O)O1)C[C@H](O)[C@H]2C(=O)O [Recrystallized natamycin, natamycin] | Homogeneous | Homogeneous | Homogeneous | Homogeneous | Homogeneous | Start demixing observed | almost completely resuspended | very high | 100% | 100% | 99% | 100% | 98% | still contained needle-shaped crystals having the same mean length |  |  |
| C[C@@H]1C/C=C/C=C/C=C/C=C/[C@H](O[C@@H]2O[C@H](C)[C@@H](O)[C@H](N)[C@@H]2O)C[C@@H]2O[C@](O)(C[C@@H](O)C[C@H]3O[C@@H]3/C=C/C(=O)O1)C[C@H](O)[C@H]2C(=O)O [natamycin] |  |  |  |  |  |  |  |  |  |  |  |  |  |  | easily dissolve | hardly dissolve |
| C[C@@H]1C/C=C/C=C/C=C/C=C/[C@H](O[C@@H]2O[C@H](C)[C@@H](O)[C@H](N)[C@@H]2O)C[C@@H]2O[C@](O)(C[C@@H](O)C[C@H]3O[C@@H]3/C=C/C(=O)O1)C[C@H](O)[C@H]2C(=O)O [Standard natamycin, natamycin] | Homogeneous | Start demixing observed | Two layers observed | Pellet formation | Pellet formation | Pellet and clear top layer | remained a solid pellet |  |  |  |  |  |  |  |  |  |
